Values quoted from earlier work as cited in patent US20180168955A1, “IODINE-CONTAINING ORAL CARE COMPOSITIONS” (priority 2016, published 2018).

Question: Which “volume of alcohol in which one gram of iodine dissolves” value (solvent alcohol) does the source give for II [iodine] here?
Answer: The value was 12.5 mL.

Question: And the “volume of water in which one gram of iodine dissolves” value (solvent water)?
Answer: Its value is 2950 mL.
